In US8268827B2, “Pyridazinone derivatives as PARP inhibitors” (Istituto di Ricerche di Biologia Molecolare P. Angeletti …, priority 2007, dated 2012):
Where a name gives a salt, the structure may show the parent alone.

Assays:
[1] = system: BRCA-1 silenced HeLa cells (HeLa shBRCA1-GFP); assay: Proliferation assay in BRCA-1 silenced HeLa cells; type: cell-based; conditions: Homo sapiens; BRCA1 silenced HeLa cells, 168 hours; read-out: CC50 in the BRCA1 silenced HeLa cells
Summary of the method: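 Antiproliferative effect was read by Celltiter Blue fluorescence after 168 h of compound treatment at 37° C., 5% CO2. Cells were matched HeLa pairs, BRCA1-shRNA (>80% silenced, GFP) versus non-shRNA vector control, in DMEM with 10% FCS.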

[2] = target: T1, PARP-1 (Homo sapiens, UniProt P09874); assay: PARP-1 SPA assay; type: biochemical
T1 construct: purchased Trevigen 4668-500-01
Procedure: Assay buffer: 100 mM Tris pH 8, 4 mM MgCl2, 4 mM Spermine, 200 mM KCl, 0.04% Nonidet P-40.
Nicotinamide-adenine dinucleotide (NAD)/DNA Mix: [^3H-NAD] (250 uCi/ml, 0.4 ul, Perkin-Elmer NET-443H), NAD (1.5 mM, 0.05 ul, SIGMA N-1511), Biotinylated-NAD (250 uM, 0.03 ul, Trevigen 4670-500-01), Activated calf thymus (1 mg/ml, 0.05 ul, Amersham Biosciences 27-4575), H2O (to 10 ul).
Developing Mix: Streptavidin SPA beads (5 mg/ml, Amersham Biosciences RPNQ 0007) dissolved in 500 mM EDTA.
The reaction is performed in 96-well microplate with a final volume of 50 uL/well. Add 5 ul 5% DMSO/compound solution, add enzyme mix (35 ul), start the reaction by adding NAD/DNA mix (10 uL) and incubate for 2 hrs at RT. Stop the reaction by adding developing mix (25 ul) and incubate 15 min at RT. Measure using a Packard TOP COUNT instrument.

T1 sequence (P09874 whole entry): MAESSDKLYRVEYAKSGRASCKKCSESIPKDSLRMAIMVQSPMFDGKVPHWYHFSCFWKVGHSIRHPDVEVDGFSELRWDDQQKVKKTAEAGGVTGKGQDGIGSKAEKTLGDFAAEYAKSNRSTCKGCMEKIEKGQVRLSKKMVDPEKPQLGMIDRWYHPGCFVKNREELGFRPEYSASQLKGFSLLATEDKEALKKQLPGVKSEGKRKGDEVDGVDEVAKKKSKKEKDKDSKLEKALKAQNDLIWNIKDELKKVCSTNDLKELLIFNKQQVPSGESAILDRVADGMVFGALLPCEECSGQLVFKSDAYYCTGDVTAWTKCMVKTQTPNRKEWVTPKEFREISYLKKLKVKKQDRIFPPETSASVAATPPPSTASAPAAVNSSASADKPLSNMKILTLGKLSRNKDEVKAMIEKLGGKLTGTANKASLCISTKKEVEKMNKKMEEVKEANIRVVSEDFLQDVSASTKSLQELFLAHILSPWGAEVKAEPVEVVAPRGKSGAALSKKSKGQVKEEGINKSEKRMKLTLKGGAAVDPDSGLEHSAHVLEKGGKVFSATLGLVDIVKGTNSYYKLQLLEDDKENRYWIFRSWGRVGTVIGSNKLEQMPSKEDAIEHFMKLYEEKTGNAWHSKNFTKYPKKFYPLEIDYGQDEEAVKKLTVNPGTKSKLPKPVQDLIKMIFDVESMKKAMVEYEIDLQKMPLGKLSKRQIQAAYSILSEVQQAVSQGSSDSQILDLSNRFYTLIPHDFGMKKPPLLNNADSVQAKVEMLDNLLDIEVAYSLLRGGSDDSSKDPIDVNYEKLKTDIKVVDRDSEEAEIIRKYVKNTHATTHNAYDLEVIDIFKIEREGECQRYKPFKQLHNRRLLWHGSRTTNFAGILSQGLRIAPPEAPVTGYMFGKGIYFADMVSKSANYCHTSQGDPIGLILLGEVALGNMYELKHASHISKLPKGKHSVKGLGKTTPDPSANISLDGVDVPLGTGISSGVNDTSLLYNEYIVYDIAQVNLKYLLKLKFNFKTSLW

Row | IC50 [2] [nM] | SMILES | CC50 [1] [nM]
1 | < 5 | O=C(c1cc(Cc2cc(C(F)(F)F)c(=O)[nH]n2)ccc1F)N1CCN(C2CCCC2)C(=O)C1 [Example 33, 6-{3-[(4-Cyclopentyl-3-oxopiperazin-1-yl)carbonyl]-4-fluorobenzyl}-3-oxo-4-(trifluoromethyl)-2,3-dihydropyridazin-1-ium trifluoroacetate] | 50 to 500
2 | 5 to 25 | Cc1c(Cc2ccc(F)c(C(=O)N3CCN(C4CCCCC4)C(=O)C3C)c2)n[nH]c(=O)c1C (centres unmarked) [Example 35, 6-{3-[(4-Cyclohexyl-2-methyl-3-oxopiperazin-1-yl)carbonyl]-4-fluorobenzyl}-4,5-dimethyl-3-oxo-2,3-dihydropyridazin-1-ium trifluoroacetate] | < 5000
3 | 5 to 25 | Cc1c(Cc2ccc(F)c(C(=O)N3CCC(=O)N(C(C)C)CC3)c2)n[nH]c(=O)c1C [Example 36, 6-{4-Fluoro-3-[(4-isopropyl-5-oxo-1,4-diazepan-1-yl)carbonyl]benzyl}-4,5-dimethyl-3-oxo-2,3-dihydropyridazin-1-ium trifluoroacetate] | < 5000
4 | < 5 | Cc1c(Cc2ccc(F)c(C(=O)N3CCN(c4cccnc4)C(=O)C3)c2)n[nH]c(=O)c1C [Example 38, 6-{4-Fluoro-3-[(3-oxo-4-pyridin-3-ylpiperazin-1-yl)carbonyl]benzyl}-4,5-dimethylpyridazin-3(2H)-one] | 50 to 500
5 | < 5 | CCc1c(Cc2ccc(F)c(C(=O)N3CCN(C4CCCCC4)C(=O)C3)c2)n[nH]c(=O)c1C(F)(F)F [Example 39, 6-{3-[(4-Cyclohexyl-3-oxopiperazin-1-yl)carbonyl]-4-fluorobenzyl}-5-ethyl-4-(trifluoromethyl)pyridazin-3(2H)-one trifluoroacetate] | < 50
6 | 5 to 25 | Cc1c(Cc2ccc(F)c(C(=O)N3CCN(c4ccc(F)cc4)C(=O)C3)c2)n[nH]c(=O)c1C [Example 40, 6-(4-Fluoro-3-{[4-(4-fluorophenyl)-3-oxopiperazin-1-yl]carbonyl}benzyl)-4,5-dimethyl-3-oxo-2,3-dihydropyridazin-1-ium trifluoroacetate] | 50 to 500
7 | 5 to 25 | Cc1c(Cc2ccc(F)c(C(=O)N3CCN(C4CCC(F)(F)CC4)C(=O)C3)c2)n[nH]c(=O)c1C [Example 48, 6-(3-{[4-(4,4-Difluorocyclohexyl)-3-oxopiperazin-1-yl]carbonyl}-4-fluorobenzyl)-4,5-dimethyl-3-oxo-2,3-dihydropyridazin-1-ium trifluoroacetate] | 50 to 500
8 | < 5 | Cc1c(Cc2ccc(F)c(C(=O)N3CCN(C4CCC(F)(F)C4)C(=O)C3)c2)n[nH]c(=O)c1C (centres unmarked) [Example 49, 6-(3-{[4-(3,3-Difluorocyclopentyl)-3-oxopiperazin-1-yl]carbonyl}-4-fluorobenzyl)-4,5-dimethyl-3-oxo-2,3-dihydropyridazin-1-ium trifluoroacetate] | < 50
9 | 5 to 25 | Cc1c(Cc2ccc(F)c(C(=O)N3CCN(C4CCC(C)(C)CC4)C(=O)C3)c2)n[nH]c(=O)c1C [Example 50, 6-(3-{[4-(4,4-Dimethylcyclohexyl)-3-oxopiperazin-1-yl]carbonyl}-4-fluorobenzyl)-4,5-dimethyl-3-oxo-2,3-dihydropyridazin-1-ium trifluoroacetate] | < 50
10 | 5 to 25 | Cc1c(Cc2ccc(F)c(C(=O)N3CCN(C4CCCC(C)(C)C4)C(=O)C3)c2)n[nH]c(=O)c1C (centres unmarked) [Example 51, 6-(3-{[4-(3,3-Dimethylcyclohexyl)-3-oxopiperazin-1-yl]carbonyl}-4-fluorobenzyl)-4,5-dimethyl-3-oxo-2,3-dihydropyridazin-1-ium trifluoroacetate] | 50 to 500
11 | 5 to 25 | Cc1c(Cc2ccc(F)c(C(=O)N3CCN(C45CC(C4)C5)C(=O)C3)c2)n[nH]c(=O)c1C [Example 52, 6-{3-[(4-Bicyclo[1.1.1]pent-1-yl-3-oxopiperazin-1-yl)carbonyl]-4-fluorobenzyl}-4,5-dimethyl-3-oxo-2,3-dihydropyridazin-1-ium trifluoroacetate] | 50 to 500
12 | 5 to 25 | Cc1c(Cc2ccc(F)c(C(=O)N3CCN(CC4CCCc5ccccc54)C(=O)C3)c2)n[nH]c(=O)c1C (centres unmarked) [Example 53, 6-(4-Fluoro-3-{[3-oxo-4-(1,2,3,4-tetrahydronaphthalen-1-ylmethyl)piperazin-1-yl]carbonyl}benzyl)-4,5-dimethyl-3-oxo-2,3-dihydropyridazin-1-ium trifluoroacetate] | 50 to 500
13 | < 5 | Cc1c(Cc2ccc(F)c(C(=O)N3CCN(C(C)c4nc(C(C)C)no4)C(=O)C3)c2)n[nH]c(=O)c1C (centres unmarked) [Example 54, 6-[4-Fluoro-3-({4-[1-(3-isopropyl-1,2,4-oxadiazol-5-yl)ethyl]-3-oxopiperazin-1-yl}carbonyl)benzyl]-4,5-dimethyl-3-oxo-2,3-dihydropyridazin-1-ium trifluoroacetate] | 50 to 500
14 | 5 to 25 | Cc1c(Cc2ccc(F)c(C(=O)N3CCN(C4CC(F)(F)C4)C(=O)C3)c2)n[nH]c(=O)c1C [Example 55, 6-(3-{[4-(3,3-Difluorocyclobutyl)-3-oxopiperazin-1-yl]carbonyl}-4-fluorobenzyl)-4,5-dimethyl-3-oxo-2,3-dihydropyridazin-1-ium trifluoroacetate] | 50 to 500
15 | 5 to 25 | Cc1c(Cc2ccc(F)c(C(=O)N3CCN(CC4(c5ccccc5)CCOCC4)C(=O)C3)c2)n[nH]c(=O)c1C [Example 56, 6-[4-Fluoro-3-({3-oxo-4-[(4-phenyltetrahydro-2H-pyran-4-yl)methyl]piperazin-1-yl}carbonyl)benzyl]-4,5-dimethyl-3-oxo-2,3-dihydropyridazin-1-ium trifluoroacetate] | < 5000
16 | 5 to 25 | Cc1c(Cc2ccc(F)c(C(=O)N3CCN(C4CCC4)C(=O)C3)c2)n[nH]c(=O)c1C [Example 57, 6-{3-[(4-Cyclobutyl-3-oxopiperazin-1-yl)carbonyl]-4-fluorobenzyl}-4,5-dimethyl-3-oxo-2,3-dihydropyridazin-1-ium trifluoroacetate] | 50 to 500
17 | < 5 | Cc1c(Cc2ccc(F)c(C(=O)N3CCN(CCc4cccc(F)c4)C(=O)C3)c2)n[nH]c(=O)c1C [Example 59, 6-[4-Fluoro-3-({4-[2-(3-fluorophenyl)ethyl]-3-oxopiperazin-1-yl}carbonyl)benzyl]-4,5-dimethyl-3-oxo-2,3-dihydropyridazin-1-ium trifluoroacetate] | 50 to 500
18 | < 5 | Cc1c(Cc2ccc(F)c(C(=O)N3CCN(c4cnc5ccccc5c4)C(=O)C3)c2)n[nH]c(=O)c1C [Example 60, 6-{4-Fluoro-3-[(3-oxo-4-quinolin-3-ylpiperazin-1-yl)carbonyl]benzyl}-4,5-dimethylpyridazin-3(2H)-one] | < 50
19 | 5 to 25 | Cc1c(Cc2ccc(F)c(C(=O)N3CCN(c4cc(C(F)(F)F)ccn4)C(=O)C3)c2)n[nH]c(=O)c1C [Example 61, 3-[4-Fluoro-3-({3-oxo-4-[4-(trifluoromethyl)pyridin-2-yl]piperazin-1-yl}carbonyl)benzyl]-4,5-dimethyl-6-oxo-1,6-dihydropyridazin-1-ium trifluoroacetate] | 50 to 500
